US20110217262A1, “Treatment of Ocular Surface Disorders by Increasing Conjunctival Vascular Permeability” (priority 2010, published 2011)

Tests used:
[1] = system: conjunctival blood vessels of rabbit eyes; assay: Evans blue dye assay of conjunctival vascular permeability; type: in vivo, New Zealand White rabbits
Experimental: Method 1: Evans blue dye assay. […] Animals were anesthetized with 2-5% isofluorane gas administered via mask. The eyes were sterilized with 5% iodine (povidone iodine (HUMCO, Texarkana, Tex., USA) diluted to 5% in BSS (Alcon, Fort Worth, Tex., USA)) and 2-3 drops of 0.5% ophthalmic proparacaine (Alcon, Fort Worth, Tex., USA) was administered as a topical anesthetic. Right eyes (OD) received subconjunctival injections of 50 microliters of C-NOD in 100% DMSO. Left eyes (OS) received subconjunctival injections of 50 microliters of 100% DMSO. 40 mg/kg of Evans blue dye (Sigma-Aldrich, St. Louis, Mo., USA) was then injected into an ear vein. Eyes were photographed and tear samples were collected at 1, 2 and 3 days post injection. Tears were collected by insertion of 7 mm discs of Whatman 3M filter paper (Whatman, Inc., Piscataway, N.J., USA) under the lower eyelid for 2 minutes. The filter paper discs were stored in 200 microliters of a phosphate buffered saline solution […] at 5-10° C. Absorption at 620 nm was used to quantify Evans blue dye in tears.
An initial test of the ability of a nitric oxide donor B-NOD (Bing, R. J., Biochem. Biophys. Res. Comm. (2000) 275, 350) to increase conjunctival vascular permeability was performed. Fifty microliters of 100 mg/ml B-NOD in DMSO was injected OD, while DMSO vehicle was injected OS. Some eyes received no injection. Vascular permeability was assessed using the Evans blue dye assay. […] The difference between B-NOD and C-NOD may be due to the shorter half-life predicted for B-NOD.

[2] = system: rabbit eyes (tears); assay: Total protein and serum albumin assay of tears; type: in vivo, New Zealand White rabbits
Experimental: Prior to subconjunctival injection, tear samples were collected from the eyes of the rabbits. Tears were collected by simultaneous insertion of two 7 mm discs of Whatman 3M filter paper (Whatman, Inc., Piscataway, N.J., USA) under the lower eyelid for 2 minutes. The filter paper discs were stored in 200 microliters of a phosphate buffered saline solution containing 0.05% Tween and 0.02% sodium azide at 5-10° C. Animals were anesthetized with 2-5% isofluorane gas administered via mask. The eyes were sterilized with 5% iodine (povidone iodine (HUMCO, Texarkana, Tex., USA) diluted to 5% in BSS (Alcon, Fort Worth, Tex., USA)) and 2-3 drops of 0.5% ophthalmic proparacaine (Alcon, Fort Worth, Texan, USA) was administered as a topical anesthetic. Right eyes (OD) received subconjunctival injections of 50 microliters of C-NOD in 100% DMSO. Left eyes (OS) received subconjunctival injections of 50 microliters of 100% DMSO. Tear samples were collected at 1 hour, then every day for up to 5 days.
Protein content of tears was assessed by two methods. First, total protein was measured using a Bio-Rad Protein Assay Kit (Bio-Rad Laboratories, Hercules, Calif., USA). Second, rabbit serum albumin was measured using an Assaypro Rabbit Albumin ELISA kit (Assaypro LLC, St. Charles, Mo., USA). Both kits were used according to the manufacturer's instructions. […]

[3] = system: rabbit eyes; settings: 1 day post-injection
Experimental: Initial tests on some other candidate stimulators of vascular permeability was performed.

[4] = system: epithelial corneal lesions in diabetic patients; settings: prospective, randomized, masked clinical trial; cited from earlier work

O=C(Oc1cccc(CO[N+](=O)[O-])c1)c1ccccc1O [B-NOD]
Evans blue dye in tears versus uninjected eyes ([1]; 50 microliters of 100 mg/ml in DMSO, by 24 hours): This difference disappeared | Evans blue dye in tears versus uninjected eyes ([1]; 50 microliters of 100 mg/ml in DMSO, six hours post-injection): more Evans blue dye than did uninjected eyes | Evans blue dye in tears versus vehicle injected eyes ([1]; 50 microliters of 100 mg/ml in DMSO, throughout the experiment): about the same amount of Evans blue dye as did vehicle injected eyes

CCOC(=O)Oc1ccccc1C(=O)Oc1cccc(CO[N+](=O)[O-])c1 [C-NOD]
presence of subconjunctival dark Evans blue dye (photographs) ([1]; 66 mg/ml subconjunctival, 24, 48 and 72 hours post injection, versus vehicle injected eyes): evident | Evans blue dye in tears versus DMSO vehicle injected eyes ([1]; absorption at 620 nm, in most cases, especially at 48 hours): more Evans blue dye present in the tears | total protein content of tears ([2]; 10 or 20 mg/cc, 1 day post injection, relative to uninjected eyes, N=4): significantly increased protein content of tears | proportion of serum albumin in tears (albumin to total protein) ([2]; each concentration, relative to vehicle injection, 1 hour and 5 days post-injection): increased

NCCc1c[nH]cn1 [Histamine]
Injection [3]: Trace | Mucous discharge [3]: Trace | observable clinical response in the eyes ([3]; conditions not optimized): observable clinical response

NCCc1c[nH]c2ccc(O)cc12 [Serotonin]
Chemosis [3]: Trace | Injection [3]: None | Mucous discharge [3]: None

hyaluronic acid
epithelial healing time [4]: 7.1 days

B1: Angiopoietin-2: candidate stimulator of vascular permeability (protein, UniProt O15123 19-496, looked up)
Angiopoietin-2: YNNFRKSMDSIGKKQYQVQHGSCSYTFLLPEMDNCRSSSSPYVSNAVQRDAPLEYDDSVQRLQVLENIMENNTQWLMKLENYIQDNMKKEMVEIQQNAVQNQTAVMIEIGTNLLNQTAEQTRKLTDVEAQVLNQTTRLELQLLEHSLSTNKLEKQILDQTSEINKLQDKNSFLEKKVLAMEDKHIIQLQSIKEEKDQLQVLVSKQNSIIEELEKKIVTATVNNSVLQKQQHDLMETVNNLLTMMSTSNSAKDPTVAKEEQISFRDCAEVFKSGHTTNGIYTLTFPNSTEEIKAYCDMEAGGGGWTIIQRREDGSVDFQRTWKEYKVGFGNPSGEYWLGNEFVSQLTNQQRYVLKIHLKDWEGNEAYSLYEHFYLSSEELNYRIHLKGLTGTAGKISSISQPGNDFSTKDGDNDKCICKCSQMLTGGWWFDACGPSNLNGMYYPQRQNTNKFNGIKWYYWKGSGYSLKATTMMIRPADF
Chemosis [3]: None | Injection [3]: None | Mucous discharge [3]: None
